Results on three compounds are retold here after patent US10604555B2, “GIP derivatives and uses thereof” (priority 2018, dated 2020).

*1 amine or outer side, *2 acyl side, *3 side chain or, on linkers, in order; H or OH if unused. Where no end group is shown, it is not given here. Side-chain parts run from the residue outwards. [ ]: non-standard residue; d: D form. The star is where a group is joined. C18 diacid = O=C(O)CCCCCCCCCCCCCCCCC(=O)*; γGlu = O=C(O)[C@H](CCC(=O)[*:2])N[*:1]; Nle = CCCC[C@H](N)C(=O)O; AEEA = NCCOCCOCC(=O)O; Aib = CC(C)(N)C(=O)O

Format in all cases: cell-based
Settings in all cases: 0.2% HSA

For one test, the target named is T1, human GIP receptor (Homo sapiens, UniProt P48546).
T1 construct: expressed in transfected cells; host or cells: BHK (parent line BHKTS13), BHK CRE luc2P hGIPR clone #5
T1 sequence (P48546 22-466): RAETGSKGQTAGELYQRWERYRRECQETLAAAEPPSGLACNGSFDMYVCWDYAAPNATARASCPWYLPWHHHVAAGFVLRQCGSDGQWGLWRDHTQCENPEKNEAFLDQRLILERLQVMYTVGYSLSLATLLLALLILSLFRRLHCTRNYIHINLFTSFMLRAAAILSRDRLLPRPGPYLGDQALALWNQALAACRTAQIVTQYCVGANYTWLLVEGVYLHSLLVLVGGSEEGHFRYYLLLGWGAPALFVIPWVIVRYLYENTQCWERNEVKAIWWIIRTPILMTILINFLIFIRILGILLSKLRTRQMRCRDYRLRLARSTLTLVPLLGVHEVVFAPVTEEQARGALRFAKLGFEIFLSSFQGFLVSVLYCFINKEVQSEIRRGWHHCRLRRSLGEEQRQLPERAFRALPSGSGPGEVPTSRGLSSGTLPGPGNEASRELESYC
Nature of the test: In vitro potency (CRE luciferase; whole cells), BHK CRE luc2P hGIPR. Put shortly:
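BHK clones carrying a CRE luciferase element, each transfected with one human receptor, were seeded at 5000 cells/well overnight. Compounds were diluted in buffer with 1% ovalbumin and 0.1% Pluronic F-68, with or without human serum albumin. Luminescence was read after steadylite plus; non-linear log(agonist)-response fit, averaged over at least two replicates.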

The next test has as its target T2, human GLP-1 receptor (Homo sapiens, UniProt P43220).
T2 construct: expressed in transfected cells; host or cells: BHK (parent line BHKTS13), BHK CRE luc2P hGLP-1R clone #6
Nature of the test: In vitro potency (CRE luciferase; whole cells), BHK CRE luc2P hGLP-1R. As for the experimental part:
(§1) In Vitro Potency (CRE Luciferase; Whole Cells)
(§2) The in vitro potency is the measure of human GIP, GLP-1 or glucagon receptor activation, respectively, in a whole cell assay.
(§3) In vitro potency was determined by measuring the response of the human GIP, GLP-1 or glucagon receptor in a reporter gene assay in individual cell lines. […] When the respective receptor is activated it results in the production of cAMP, which in turn results in the luciferase protein being expressed. When assay incubation is completed the luciferase substrate (luciferin) is added and the enzyme converts luciferin to oxyluciferin to produce bioluminescence. The luminescence is measured as the readout for the assay.
(§4) The cells were derived from a clone containing the CRE luciferase element and were established by further transfection with the respective receptor to obtain the current clone.
(§5) The cells were cultured at 5% CO2 in Cell Culture Medium. They were aliquoted and stored in liquid nitrogen. The cells were kept in passage and were seeded out the day before each assay.
(§6) The Assay Buffer consisted of 1% ovalbumin and 0.1% Pluronic F-68 in Assay Medium with the addition of human serum albumin at twice the indicated concentrations.
(§7) 1) Cells were plated at 5000 cells/well and incubated overnight.
(§8) 2) Cells were washed three times in PBS.
(§9) 3) Assay Medium (50 μl aliquot) with or without serum albumin was added to each well in the assay plate.
(§10) 4) Stocks of the test compounds and reference compounds were diluted to a concentration of 0.2 μM in Assay Buffer. […] 8) The cells were washed three times with PBS plus some liquid in each well. 9) A 100 μl aliquot of steadylite plus reagent was added to each well of the assay plate (reagent was light sensitive). 10) Each assay plate was covered with aluminum foil to protect it from light and shaken for 30 min at room temperature. 11) Each assay plate was read in a microtiter plate reader. Calculations and Results
The data from the microtiter plate reader was transferred to GraphPad Prism software. The software performs a non-linear regression (log(agonist) vs response).
A minimum of two replicates was measured for each sample. The reported values are averages of the replicates.

The target in another test is T3, human glucagon receptor (Homo sapiens, UniProt P47871).
T3 construct: expressed in transfected cells; host or cells: BHK (parent line BHKTS13), BHK CRE luc2P hGCGR clone #18
T3 sequence (P47871 26-477): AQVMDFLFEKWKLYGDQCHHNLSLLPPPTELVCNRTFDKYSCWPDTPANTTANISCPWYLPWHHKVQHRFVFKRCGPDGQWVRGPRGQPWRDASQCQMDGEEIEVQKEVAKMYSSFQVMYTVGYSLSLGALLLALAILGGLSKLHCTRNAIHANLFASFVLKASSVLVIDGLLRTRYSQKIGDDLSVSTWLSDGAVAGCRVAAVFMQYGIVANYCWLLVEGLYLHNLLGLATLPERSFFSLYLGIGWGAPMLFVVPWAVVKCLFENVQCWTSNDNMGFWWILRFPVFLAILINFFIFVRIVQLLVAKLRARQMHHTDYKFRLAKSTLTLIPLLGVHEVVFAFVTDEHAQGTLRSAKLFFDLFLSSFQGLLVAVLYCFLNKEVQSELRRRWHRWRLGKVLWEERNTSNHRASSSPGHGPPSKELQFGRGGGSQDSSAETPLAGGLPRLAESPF
Nature of the test: In vitro potency (CRE luciferase; whole cells), BHK CRE luc2P hGCGR. The method, then: as §1, §2, §3, §4, §5, §6, §7, §8, §9, §10
The data from the microtiter plate reader was transferred to GraphPad Prism software. […]
A minimum of two replicates was measured for each sample. […]

T2 sequence (P43220 24-463): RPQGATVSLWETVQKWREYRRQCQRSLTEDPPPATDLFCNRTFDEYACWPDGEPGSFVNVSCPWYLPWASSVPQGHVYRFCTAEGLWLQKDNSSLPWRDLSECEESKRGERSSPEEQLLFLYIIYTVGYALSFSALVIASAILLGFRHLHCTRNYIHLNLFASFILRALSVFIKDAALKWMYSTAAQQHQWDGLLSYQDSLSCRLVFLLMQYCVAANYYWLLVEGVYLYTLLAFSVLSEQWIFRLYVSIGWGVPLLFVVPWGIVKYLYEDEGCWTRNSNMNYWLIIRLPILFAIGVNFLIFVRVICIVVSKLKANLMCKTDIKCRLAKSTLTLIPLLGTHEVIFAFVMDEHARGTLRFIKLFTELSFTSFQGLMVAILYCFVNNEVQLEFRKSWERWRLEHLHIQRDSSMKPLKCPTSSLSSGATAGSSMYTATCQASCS

Turning to `CCCC[C@H](NC(=O)[C@H](C)NC(=O)[C@@H](NC(=O)[C@H](CO)NC(=O)[C@H](Cc1ccc(O)cc1)NC(=O)[C@H](CC(=O)O)NC(=O)[C@H](CO)NC(=O)[C@@H](NC(=O)[C@H](Cc1ccccc1)NC(=O)[C@@H](NC(=O)CNC(=O)[C@H](CCC(=O)O)NC(=O)C(C)(C)NC(=O)[C@@H](N)Cc1ccc(O)cc1)[C@@H](C)O)[C@@H](C)CC)[C@@H](C)CC)C(=O)N[C@@H](CC(=O)O)C(=O)N[C@@H](CCCCN)C(=O)N[C@H](C(=O)N[C@@H](CCCNC(=N)N)C(=O)N[C@@H](CCC(N)=O)C(=O)N[C@@H](CCC(N)=O)C(=O)N[C@@H](CC(=O)O)C(=O)N[C@@H](Cc1ccccc1)C(=O)N[C@H](C(=O)N[C@@H](CCCCNC(=O)COCCOCCNC(=O)COCCOCCNC(=O)CC[C@H](NC(=O)CCCCCCCCCCCCCCCCC(=O)O)C(=O)O)C(=O)N[C@@H](Cc1c[nH]c2ccccc12)C(=O)N[C@@H](CC(C)C)C(=O)N[C@@H](CC(C)C)C(=O)N[C@@H](C)C(=O)N[C@@H](CCC(N)=O)C(=O)N[C@@H](CCCCN)C(=O)NCC(=O)N[C@@H](CCCCN)C(=O)N[C@@H](CCC(=O)O)C(=O)N[C@@H](CCC(=O)O)C(=O)N[C@@H](CC(=O)O)C(=O)N[C@@H](Cc1c[nH]c2ccccc12)C(=O)N[C@@H](CCCCN)C(=O)N[C@@H](Cc1c[nH]cn1)C(=O)N[C@@H](CC(N)=O)C(=O)N[C@H](C(=O)N[C@H](C(=O)N[C@@H](CCC(N)=O)C(=O)O)[C@@H](C)O)[C@@H](C)CC)C(C)C)[C@@H](C)CC` [Compound 37, N{Epsilon-24}-[2-[2-[2-[[2-[2-[2-[[(4S)-4-carboxy-4-(17-carboxyheptadecanoylamino)butanoyl]amino]ethoxy]ethoxy]acetyl]amino]ethoxy]ethoxy]acetyl]-[Aib2,Nle14,Arg18,Lys24,Glu33,Glu34]-hGIP], the EC50 (in general, the concentration needed to bring the measured effect to its halfway point) on human GIP receptor is 0.00412 nM; on human GLP-1 receptor it was > 100 nM; at human glucagon receptor, > 100 nM.

On to `CCCC[C@H](NC(=O)[C@H](C)NC(=O)[C@@H](NC(=O)[C@H](CO)NC(=O)[C@H](Cc1ccc(O)cc1)NC(=O)[C@H](CC(=O)O)NC(=O)[C@H](CO)NC(=O)[C@@H](NC(=O)[C@H](Cc1ccccc1)NC(=O)[C@@H](NC(=O)CNC(=O)[C@H](CCC(=O)O)NC(=O)C(C)(C)NC(=O)[C@@H](N)Cc1ccc(O)cc1)[C@@H](C)O)[C@@H](C)CC)[C@@H](C)CC)C(=O)N[C@@H](CC(=O)O)C(=O)N[C@@H](CCCCN)C(=O)N[C@H](C(=O)N[C@@H](CCCNC(=N)N)C(=O)N[C@@H](CCC(N)=O)C(=O)N[C@@H](CCC(N)=O)C(=O)N[C@@H](CC(=O)O)C(=O)N[C@@H](Cc1ccccc1)C(=O)N[C@H](C(=O)N[C@@H](CCCCNC(=O)CC[C@H](NC(=O)CC[C@H](NC(=O)CC[C@H](NC(=O)CCCCCCCCCCCCCCCCC(=O)O)C(=O)O)C(=O)O)C(=O)O)C(=O)N[C@@H](Cc1c[nH]c2ccccc12)C(=O)N[C@@H](CC(C)C)C(=O)N[C@@H](CC(C)C)C(=O)N[C@@H](C)C(=O)N[C@@H](CCC(N)=O)C(=O)N[C@@H](CCCCN)C(=O)NCC(=O)N[C@@H](CCCCN)C(=O)N[C@@H](CCC(=O)O)C(=O)N[C@@H](CCC(=O)O)C(=O)N[C@@H](CC(=O)O)C(=O)N[C@@H](Cc1c[nH]c2ccccc12)C(=O)N[C@@H](CCCCN)C(=O)N[C@@H](Cc1c[nH]cn1)C(=O)N[C@@H](CC(N)=O)C(=O)N[C@H](C(=O)N[C@H](C(=O)N[C@@H](CCC(N)=O)C(=O)O)[C@@H](C)O)[C@@H](C)CC)C(C)C)[C@@H](C)CC` [Compound 40, N{Epsilon-24}-[(4S)-4-carboxy-4-[[(4S)-4-carboxy-4-[[(4S)-4-carboxy-4-(17-carboxyheptadecanoylamino)butanoyl]amino]butanoyl]amino]butanoyl]-[Aib2,Nle14,Arg18,Lys24,Glu33,Glu34]-hGIP], for which the EC50 at human GIP receptor was 0.00447 nM; on human GLP-1 receptor, > 100 nM; on human glucagon receptor, > 100 nM.

Turning to “Y[Aib]EGTFISDYSIA[Nle]DKIHQQDFVK([AEEA-AEEA-γGlu-C18 diacid])WLLAQKGKEEDWKHNITQ [Compound 35, N{Epsilon-24}-[2-[2-[2-[[2-[2-[2-[[(4S)-4-carboxy-4-(17-carboxyheptadecanoylamino)butanoyl]amino]ethoxy]ethoxy]acetyl]amino]ethoxy]ethoxy]acetyl]-[Aib2,Nle14,Lys24,Glu33,Glu34]-hGIP]”, the EC50 on human GIP receptor was 0.00545 nM; on human GLP-1 receptor, > 100 nM; on human glucagon receptor, > 100 nM.
